Reference: US9849130B2 (KamTek, Inc., priority 2014, dated 2017)
Values after ≈ are worked out from the molar mass of the structure shown. Values joined by “and” are separate entries in the source; they are usually repeats but may differ in a detail not shown here. Identical values can stand only once. Like-named read-outs stand apart in the source and are kept apart here. Blank lines part the entries; values can stand above or below the compound they belong to.

Tests used:
[1] = system: Clostridium difficile (CD) strains; experiment: microbe, parasite or virus in culture; assay type: cell-based
Escherichia coli strains = experiment: MIC by microdilution in Mueller-Hinton broth against Escherichia coli strains; assay type: cell-based; conditions: Escherichia coli, Mueller-Hinton broth, read-out: MIC
Enterococcus faecalis = experiment: MIC by microdilution in Mueller-Hinton broth against Enterococcus faecalis strains; assay type: cell-based; conditions: Enterococcus faecalis
Enterococci faecium = experiment: MIC by microdilution in Mueller-Hinton broth against Enterococci faecium strains; assay type: cell-based, Enterococcus faecium; conditions: Enterococcus faecium, Mueller-Hinton broth, read-out: MIC
[2] = system: Staphylococcus aureus strains; experiment: MIC by microdilution in Mueller-Hinton broth against Staphylococcus aureus strains; assay type: cell-based; conditions: Staphylococcus aureus

Compound: CC1(C)CC(N=c2cc3n(-c4ccc(Cl)c(Cl)c4)c4ccccc4nc-3cc2Nc2ccc(Cl)c(Cl)c2)CC(C)(C)N1 [B4100]
- MIC [1]: 0.25 mg/L and 0.125 mg/L

- MIC (Escherichia coli strains; E. coli NR 6): 4 mg/L (≈ 6.83 µM)
- MIC (Escherichia coli strains; E. coli NR 8): 4 mg/L (≈ 6.83 µM)
- MIC (Escherichia coli strains; E. coli NR 96): 8 mg/L (≈ 13.7 µM)
- MIC (Escherichia coli strains; E. coli NR 104): 2 mg/L (≈ 3.42 µM)
- MIC (Escherichia coli strains; E. coli NR 17626): 16 mg/L (≈ 27.3 µM)
- MIC (Escherichia coli strains; E. coli NR 17627): 8 mg/L (≈ 13.7 µM)
- MIC (Escherichia coli strains; E. coli NR 17633): 8 mg/L (≈ 13.7 µM)
- MIC (Escherichia coli strains; E. coli NR 17647): 2 mg/L (≈ 3.42 µM)
- MIC (Escherichia coli strains; E. coli NR 17650): 8 mg/L (≈ 13.7 µM)
- MIC (Escherichia coli strains; E. coli NR 17661): 2 mg/L (≈ 3.42 µM)
- MIC (Escherichia coli strains; Escherichia coli strain NR 6): 4 mg/L (≈ 6.83 µM)
- MIC (Escherichia coli strains; Escherichia coli strain NR 8): 4 mg/L (≈ 6.83 µM)
- MIC (Escherichia coli strains; Escherichia coli strain NR 96): 8 mg/L (≈ 13.7 µM)
- MIC (Escherichia coli strains; Escherichia coli strain NR 104): 2 mg/L (≈ 3.42 µM)
- MIC (Escherichia coli strains; Escherichia coli strain NR 17626): 16 mg/L (≈ 27.3 µM)
- MIC (Escherichia coli strains; Escherichia coli strain NR 17627): 8 mg/L (≈ 13.7 µM)
- MIC (Escherichia coli strains; Escherichia coli strain NR 17633): 8 mg/L (≈ 13.7 µM)
- MIC (Escherichia coli strains; Escherichia coli strain NR 17647): 2 mg/L (≈ 3.42 µM)
- MIC (Escherichia coli strains; Escherichia coli strain NR 17650): 8 mg/L (≈ 13.7 µM)
- MIC (Escherichia coli strains; Escherichia coli strain NR 17661): 2 mg/L (≈ 3.42 µM)
- MIC (Enterococcus faecalis; E. faecalis NR 31884, read-out: MIC): > 32 mg/L
- MIC (Enterococcus faecalis; E. faecalis NR 31885, read-out: MIC): > 32 mg/L
- MIC (Enterococcus faecalis; E. faecalis NR 31886, read-out: MIC): > 32 mg/L
- MIC (Enterococcus faecalis; E. faecalis NR 31887, read-out: MIC): > 32 mg/L
- MIC (Enterococcus faecalis; E. faecalis NR 31888, read-out: MIC): > 32 mg/L
- MIC (Enterococci faecium; E. faecium NR 31903): > 32 mg/L
- MIC (Enterococci faecium; E. faecium NR 31909): > 32 mg/L
- MIC (Enterococci faecium; E. faecium NR 31912): > 32 mg/L
- MIC (Enterococci faecium; E. faecium NR 31915): > 32 mg/L
- MIC (Enterococci faecium; E. faecium NR 31916): > 32 mg/L
- MIC ([2]; S. aureus NR 10129, read-out: MIC): 2 mg/L (≈ 3.42 µM)
- MIC ([2]; S. aureus NR 10186, read-out: MIC): 32 mg/L (≈ 54.6 µM)
- MIC ([2]; S. aureus NR 10187, read-out: MIC): > 32 mg/L
- MIC ([2]; S. aureus NR 10188, read-out: MIC): > 32 mg/L
- MIC ([2]; S. aureus NR 10189, read-out: MIC): 4 mg/L (≈ 6.83 µM)
- MIC ([2]; S. aureus NR 10191, read-out: MIC): 32 mg/L (≈ 54.6 µM)
- MIC ([2]; S. aureus NR 10192, read-out: MIC): > 32 mg/L
- MIC ([2]; S. aureus NR 10193, read-out: MIC): > 32 mg/L
- MIC ([2]; S. aureus NR 10194, read-out: MIC): 32 mg/L (≈ 54.6 µM)
- MIC ([2]; S. aureus NR 10198, read-out: MIC): > 32 mg/L
- MIC ([2]; Staphylococcus aureus strain NR 10129, read-out: MIC): 2 mg/L (≈ 3.42 µM)
- MIC ([2]; Staphylococcus aureus strain NR 10186, read-out: MIC): 32 mg/L (≈ 54.6 µM)
- MIC ([2]; Staphylococcus aureus strain NR 10187, read-out: MIC): > 32 mg/L
- MIC ([2]; Staphylococcus aureus strain NR 10188, read-out: MIC): > 32 mg/L
- MIC ([2]; Staphylococcus aureus strain NR 10189, read-out: MIC): 4 mg/L (≈ 6.83 µM)
- MIC ([2]; Staphylococcus aureus strain NR 10191, read-out: MIC): 32 mg/L (≈ 54.6 µM)
- MIC ([2]; Staphylococcus aureus strain NR 10192, read-out: MIC): > 32 mg/L
- MIC ([2]; Staphylococcus aureus strain NR 10193, read-out: MIC): > 32 mg/L
- MIC ([2]; Staphylococcus aureus strain NR 10194, read-out: MIC): 32 mg/L (≈ 54.6 µM)
- MIC ([2]; Staphylococcus aureus strain NR 10198, read-out: MIC): > 32 mg/L
Compound: NCC[C@H](O)C(=O)N[C@@H]1C[C@H](N)[C@@H](O[C@H]2O[C@H](CN)[C@@H](O)[C@H](O)[C@H]2O)[C@H](O)[C@H]1O[C@H]1O[C@H](CO)[C@@H](O)[C@H](N)[C@H]1O [AMK, amikacin]
